Laboratory results taken from US12702670B2, “Compositions and methods for treating breast cancer” (The Regents of the University of California, priority 2020, dated 2026).
“Also recorded” adds a separate entry of the source.

What was measured:
AR = AR levels in TNBC cells; format: cell-based; settings: in vitro
[1] = test system: IGF2-expressing TNBC cells; test: TNBC cell proliferation in vitro; format: cell-based, human; settings: alone and combined
[2] = test system: IGF2-expressing TNBC cells; settings: in vitro; statement carries reference 1; cited from earlier work
murine 4T1 TNBC = test: Cell viability of murine 4T1 TNBC in vitro; format: cell-based
Description: After seeding TNBC cells for 24 hr, cells were exposed to selected combinations of BMS-754807 (20 μM), enzalutamide (20 μM), and NVP-AEW541 (8 μM) for 72 h. Cell viability was tested by CellTiter 96® aqueous non-radioactive cell proliferation assay (error bar=SEM; n=8; **P<0.001 *P<0.05). Results shown as % of vehicle treated controls.

4T1 TNBC cells = test: Murine 4T1 TNBC model in syngeneic BALB/c mice; format: in vivo
Description: FIG. 6A-D show a combination treatment of BMS with anti PD-L1 checkpoint antibody suppresses 4T1 TNBC xenograft progression in vivo. TNBC 4T1 cells (2×105) were implanted in the mammary fat pads of BALB/c female mice (6-week old) using established methods. Mice were then randomized for treatment when tumor volumes were approx. 200 mm3. Mice were treated with either vehicle control (Con), BMS 10 mg/kg, by oral gavage, daily (BMS), anti-PD-L1 checkpoint antibody from Biolegend (anti-CD274/B7-H1/PD-L1 clone 10F.9G2, 100 μg/mouse IP in PBS, Q3 days) (Ab) or combination therapy with BMS and anti-PD-L1 antibody (BMS+Ab). Tumor sizes were recorded Q 2-3 days; and mice were weighed twice weekly. Studies used 5 mice/group.
TNBC clinical trials have shown a potential benefit of anti-PD-L1 antibodies as ICIs for anti-TNBC therapy. […] Thus, 4T1 cells were implanted in mammary fat pads of female syngeneic BALB/c mice to assess antitumor efficacy of BMS-754807 alone and combined with anti-PD-L1 antibodies in mice with intact immune systems (FIG. 6). After 10 days of treatment, tumors were harvested and processed for mass cytometry analyses to assess changes in immune cell subsets under different treatment conditions in FIG. 6.

[3] = test system: MDA-MB-231 TNBC cell line; test: Scratch wound migration assay (IncuCyte S3); format: cell-based, human; settings: media conditioned with IGF2 alone (100 ng/ml), 48 h
Description: (§1) MDA-MB-231 and HCC 1937 TNBC cell lines were cultured in complete media in 96-welled plates. In each well 60,000 cells were plated. Scratch wounds were made using Unique WoundMaker™. Wound images were collected every 2 h for 48 h using the IncuCyte S3 Live-Cell Analysis System. Media containing IGF2 (100 ng/ml) was refreshed daily. […] Magnification 100×. P<0.05. […] Magnification 100×. P<0.05. FIGS. 4C & D show conditioned media containing a combination of IGF1R/IR antagonists. […] BMS/NVP=BMS-754807 (20 uM) and NVP-AEW541 (8 uM).
(§2) In vitro TNBC cell migration is stimulated in media conditioned with IGF2 alone (FIGS. 4A & 4B).

HCC 1937 TNBC cell line = test: Scratch wound migration assay (IncuCyte S3); format: cell-based; settings: media conditioned with IGF2 alone (100 ng/ml), 48 h
Description: as §1, §2

| Compound | levels of ARs in TNBC cells (AR) | anti-proliferative effects on IGF2-expressing TNBC cells [1] | human TNBC cell proliferation [2] | cell viability (murine 4T1 TNBC) | tumor volume / TNBC progression (4T1 TNBC cells; BALB/c mice, 4T1 in mammary fat pads, BMS 10 mg/kg oral gavage daily, anti-PD-L1 antibody 100 μg/mouse IP Q3 days) | myeloid derived suppressor cells (MDSCs), total and PMN-MDSC, in tumors (4T1 TNBC cells; mass cytometry of 4T1 tumors harvested after 10 days of treatment, BMS 10 mg/kg oral daily, Ab 100 μg IP Q3 days) | effector CD8+ and CD4+ tumor infiltrating lymphocytes (TILs) (4T1 TNBC cells; mass cytometry of 4T1 tumors, BMS 10 mg/kg oral daily, Ab 100 μg IP Q3 days) | cell migration [3] | cell migration (HCC 1937 TNBC cell line) |
| --- | --- | --- | --- | --- | --- | --- | --- | --- | --- |
| Nc1ncnc2c1c(-c1cccc(OCc3ccccc3)c1)cn2C1CC(CN2CCC2)C1 (centres unmarked) [NVP-AEW541] | decrease levels of ARs | anti-proliferative effects | – | – | – | – | – | – | – |
| C[C@@]1(C(=O)Nc2ccc(F)nc2)CCCN1c1nc(Nc2cc(C3CC3)n[nH]2)c2cccn2n1 [BMS-754807] | decrease levels of ARs | anti-proliferative effects | reduce human TNBC cell proliferation | Reduction of cell viability | markedly reduced tumor volume; also recorded: significant antitumor effects | decreased levels | significantly increased | – | – |
| IGF2: insulin-like growth factor 2, hormone added to media at 100 ng/ml | – | – | – | – | – | – | – | stimulated | stimulated |
